Measured values taken from patent US12150996B2, “Polymeric prodrugs and subcutaneous and/or intramuscular administration thereof” (priority 2017, dated 2024).

Assays:
SC tissue = assay: SC toxicity at the injection site (Example 10)
Method: The same studies were carried out with a polymer according to the invention coupled with Cyanine 5.5.

[1] = Pharmacokinetics and biodistribution of radiolabelled PTX; conditions: mice, liver, kidneys, spleen, lungs; radiolabel
Method: 7 week old female BALB/c OlaHsd mice (˜22 g; Envigo, France) were used. […] Each group consisted of 40 mice divided into 10 different times (0.25 h, 0.5 h, 1 h, 2 h, 4 h, 7 h, 24 h, 48 h, 96 h and 144 h) leading to 4 mice per group. […] Livers, kidneys, spleens, lungs and some SC tissue at the injection site were also collected. All the samples were stored in a freezer (−20° C.) for a maximum of one week before analysis. For the radioactivity count, approximately 100 μl of plasma and 100 mg of each organ/tissue were removed and weighed with precision. The organs were first dissolved by adding 1 ml of soluble solution (PerkinElmer, USA) and the samples were placed overnight in an oven at 60° C. They were then whitewashed by twice adding 100 μL of 30% H2O2 (weight/volume) and heated for 30 min at 60° C. in an oven. Finally, the treated plasma and organ samples were mixed with Hionic-FluorUltimagold (PerkinElmer, USA) and the radioactivity was measured with a versatile LS 6500 scintillation counter (Beckman Coulter).
Pharmacokinetic and biodistribution studies were also conducted for the polyacrylamide compound containing paclitaxel. Paclitaxel was radiolabelled and coupled to the polymer by an ester link (stable link) so that it could be followed in the blood and in various organs (liver, lungs, kidneys, spleen, SC tissue). […]

Compound	Toxicity at the injection site (SC tissue; SC administration at 30 mg/kg (paclitaxel equivalent) once a day for 4 days, FIG. 12)	Elimination (biodistribution) [1]	SC toxicity (necrosis of SC tissue) (SC tissue; in vivo, sc, 0.8 mg/kg)
CC(=O)O[C@H]1C(=O)[C@@]2(C)[C@H]([C@H](OC(=O)c3ccccc3)[C@]3(O)C[C@H](OC(=O)[C@H](O)[C@@H](NC(=O)c4ccccc4)c4ccccc4)C(C)=C1C3(C)C)[C@]1(OC(C)=O)CO[C@@H]1C[C@@H]2O [paclitaxel]	local toxicity effects	predominantly hepatic elimination	–
Cyanine 5.5	–	–	very necrotizing for SC tissue
